Key:
[1] = biological target: T1, HSF1 (Homo sapiens, UniProt Q00613); experiment: Z74 cell-based reporter assay: heat-induced RLuc expression controlled by endogenous HSF1; conditions: Z74 cells; for IC50: inhibition of HSF1 activity [RLuc]; for inhibition at 12.5 µM: 12.5 μM IHSF, negative values marked *: compound enhanced rLuc activity, read-out: Inhibition of HSF1 activity at 12.5 μM IHSF [RLuc] (%); for inhibition at 25 µM: 25 μM IHSF, 2 h exposure, 43° C. 30 min, 6 h at 37° C., read-out: Inhibition of HSF1 activity at 25 μM IHSF [RLuc] (%)
T1 construct: functionally linked to an hsp70b promoter and therefore controlled by endogenous HSF1; endogenous in cells; host or cells: HeLa cells / HeLa-derived cell line Z74
T1 sequence (Q00613 1-529): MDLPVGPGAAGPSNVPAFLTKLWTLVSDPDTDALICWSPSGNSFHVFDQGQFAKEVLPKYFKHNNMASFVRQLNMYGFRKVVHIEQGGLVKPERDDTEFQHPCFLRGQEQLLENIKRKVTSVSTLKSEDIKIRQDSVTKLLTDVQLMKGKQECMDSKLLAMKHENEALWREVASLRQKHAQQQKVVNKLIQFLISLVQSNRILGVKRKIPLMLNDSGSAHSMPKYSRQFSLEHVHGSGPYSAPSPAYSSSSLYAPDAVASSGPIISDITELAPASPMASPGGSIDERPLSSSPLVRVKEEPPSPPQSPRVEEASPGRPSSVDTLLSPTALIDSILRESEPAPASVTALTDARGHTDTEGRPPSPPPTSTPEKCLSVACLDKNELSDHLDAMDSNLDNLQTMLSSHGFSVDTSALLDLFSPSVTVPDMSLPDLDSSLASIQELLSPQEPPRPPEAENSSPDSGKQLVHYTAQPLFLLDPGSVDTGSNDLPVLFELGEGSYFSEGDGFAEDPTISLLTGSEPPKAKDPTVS
Source text: For screening this sublibrary, a cell-based assay was developed. We opted for a cell-based assay, because a cell-free assay would have had to be a DNA-binding assay. Such an assay would have limited discovery to molecules capable of interfering with the DNA-binding function of HSF1. This was thought to be too narrow a focus, considering that three of the four cavities identified in the HSF1 DNA-binding domain are not near the DNA interaction region. A straightforward cell-based assay, in which a HSF1-responsive gene would be assayed, was considered likely to be over-inclusive. Compounds would be scored as hits that inhibit any factor that is involved in HSF1 activation or prevents HSF1 deactivation. These factors include protein kinases, activators of protein phosphatases, factors affecting HSF1 mRNA stability, HSP90, HDAC6, etc. For developing a more discriminating cell-based assay, advantage was taken of the modular nature of HSF1. […] The cell-based assay developed (see below for the particular format employed) compared transactivation by wild type HSF1 and chimeric HSF1 in cells exposed to an HSF1-activating heat treatment in the presence of a sublibrary compound. A compound was scored as a hit, if it inhibited the activity of wild type HSF1 but not of chimeric HSF1.
The cell-based assay made use of HeLa-derived cell line Z74 that stably contains a gene for chimeric transcription factor LexA-(human) HSF1 under the control of a CMV early promoter, a firefly luciferase (flue) gene driven by a promoter responsive to the latter chimeric transcription factor and a Renilla luciferase (rluc) gene functionally linked to an hsp70b promoter and therefore controlled by endogenous HSF1 (FIG. 1A). As is shown in FIGS. 1B & C, the reporter genes responded similarly to heat dose, i.e., their activation depended on both duration of heat exposure and temperature of the exposure. […] Depletion of HSF1 (and LexA-HSF1) by siRNA supported the notion that this stress regulation is mediated by HSF1 (and LexA-HSF1). Therefore, the Z74 line was well suited for use in a screening assay aimed at discovering molecules that inhibit heat-induced HSF1 activity through interaction with the transcription factor's DNA-binding domain.
The compounds of the afore-mentioned biased sublibrary were screened in cell line Z74 at 12.5 and 25 μM concentrations. Typically, Z74 cultures in 96-well plates were exposed to compound or vehicle for 2 h, heat-treated at 43.0° C. for 30 min, and incubated further for 6 h at 37° C. to allow for accumulation of the luciferases. RLuc and FLuc activities were determined, typically using the Dual-Glo® Luciferase Assay System (Promega Corp., Madison, Wis.), and reading luciferase light counts in a Wallac Microbeta Trilux-1450 Luminometer (PerkinElmer, Waltham, Mass.). IHSF 001 was one of two library compounds that inhibited RLuc expression but not FLuc expression in heat-treated Z74 cells (Table 1; FIG. 2A). Therefore, IHSF 001 is an inhibitor of HSF1 function that specifically acts through the HSF1 DNA-binding domain. […] A corroborating experiment utilized a cell line containing an hsp70b promoter-driven fluc gene. […] IHSF 001 is (E)-ethyl 4-oxo-4-(thiazol-2-ylamino)but-2-enoate. The compound can be obtained from commercial sources (e.g., AKE-PB-90340538, Akos).

[2] = biological target: T2, HSE DNA-binding activity (Homo sapiens, UniProt Q00613); experiment: EMSA using extracts of heat-treated HeLa cells, in the presence of IHSF; type: biochemical; conditions: extracts of HeLa cells heat-treated at 43° C. for 30 min; concentrations as high as about 0.5 mM
T2 construct: functionally linked to an hsp70b promoter and therefore controlled by endogenous HSF1; endogenous in cells; host or cells: HeLa cells / HeLa-derived cell line Z74
T2 sequence (Q00613 1-529): T1 sequence (Q00613 1-529)
Experimental: Electrophoretic mobility shift assays (EMSA) using a radiolabeled HSE DNA probe were carried out to assess HSF1 DNA-binding activity in extracts of heat-treated (43° C./30 min) HeLa cells that had been exposed to different concentrations of compounds 058 or 115 (FIG. 3A, top panels). […] HSF1 degradation correlated well with the observed decrease in DNA-binding activity. Therefore, HSF1 degradation provides a sufficient explanation for the reduced HSE DNA-binding activity in cells treated with IHSF 058. […] EMSA were also carried out using extracts of HeLa cells that had been heat-treated at 43° C. for 30 min.

| SMILES | IC50 [1] [µM] | inhibition at 12.5 µM [1] [%] | inhibition at 25 µM [1] [%] | HSE DNA-binding activity (EMSA) in the presence of IHSF [2] |
| --- | --- | --- | --- | --- |
| CCOC(=O)/C=C/C(=O)Nc1nc(C)c(-c2ccccc2)s1 [IHSF 051, (E)-3-(4-Methyl-5-phenyl-thiazol-2-ylcarbamoyl)-acrylic acid ethyl ester] | 9.6 | 72 | 92 | no reduction |
| CCOC(=O)/C=C/C(=O)Nc1ncc(C#N)s1 [IHSF 057, (E)-3-(5-Cyano-thiazol-2-ylcarbamoyl)-acrylic acid ethyl ester] | – | 40 | 65 | no reduction |
| CCOC(=O)/C=C/C(=O)Nc1ccnc2ccccc12 [IHSF 050, (E)-3-(Quinolin-4-ylcarbamoyl)-acrylic acid ethyl ester] | – | 40 | 61 | no reduction |
| CCOC(=O)/C=C/C(=O)Nc1nc(C)c(C)s1 [IHSF 052, (E)-3-(4,5-Dimethyl-thiazol-2-ylcarbamoyl)-acrylic acid ethyl ester] | 7.4 | 57 | 71 | no reduction |
| CCOC(=O)/C=C/C(=O)Nc1ncc(-c2ccccc2C)s1 [IHSF 059, (E)-3-(5-o-Tolyl-thiazol-2-ylcarbamoyl)-acrylic acid ethyl ester] | 14.7 | 45 | 72 | no reduction |
| CCOC(=O)/C=C/C(=O)Nc1nc(C)cs1 [IHSF 011, (E)-3-(4-Methyl-thiazol-2-ylcarbamoyl)-acrylic acid ethyl ester] | 7 | 69 | 83 | no reduction |
| CCOC(=O)/C=C/C(=O)Nc1ccnc(-c2ccccc2)c1 [IHSF 049, (E)-3-(2-Phenyl-pyridin-4-ylcarbamoyl)-acrylic acid ethyl ester] | – | 53 | 85 | no reduction |
| CCOC(=O)/C=C/C(=O)Nc1ncc(-c2ccccc2)s1 [IHSF 014, (E)-3-(5-Phenyl-thiazol-2-ylcarbamoyl)-acrylic acid ethyl ester] | 7.1 | 60 | 89 | – |

Reference: patent US11597708B2, “Inhibitors of heat shock factors and uses thereof” (HSF Pharmaceuticals SA, priority 2016, dated 2023)
